Consider one compound from US20230129364A1, “PYRROLIDINE DERIVATIVE, AND PHARMACEUTICAL COMPOSITION FOR PREVENTING OR TREATING BETA-AMYLOID OR TAU PROTEIN-ASSOCIATED DISEASES CONTAINING SAME” (YONSEI UNIVERSITY, UNIVERSITY - INDUSTRY FOUNDATION (UIF), priority 2019, published 2023).

In one test the target is T1, P-Tau (S356) (Homo sapiens, UniProt P10636, P618L).
T1 construct: host or cells: HEK293T
In words: Phosphorylated tau degradation in HEK293T P301L mutant cell line, Western blot, P-Tau S356. It counts as cell-based. The following applies: 72 hours, HEK293T P301L cells, Western blot quantified with Image J. The text has this:
(§1) Specifically, the pRK5-EGFP-Tau P301L vector from Addgene (Addgene, MA, USA) was purchased and used in order to stably express P301L, which is a known representative mutation of pathological tau, in HEK293T cells. The P301L vector was inserted into HEK293T cells using a FuGENE HD transfection reagent (Promega, WI, USA) and then stabilized. The cells were removed therefrom and then only the cells into which the vector was inserted were isolated using a fluorescence-activated cell sorter (BD FACS Aria III, BD Bioscience, NJ, USA). After the isolated cells were incubated for 2 to 3 days, they were removed again and separated and cultured using a FACS twice to finally obtain a HEK293T P301 mutant cell line.
(§2) The obtained cells were seeded in each well of a 6-well plate and stabilized for 18 hours, and then each well was treated with the compound of Example 1 such that the final concentration reached 1 or 10 μM. The control group was treated with the same concentration (0.01%) of DMSO used as the solvent of the compound of Example. 72 hours later, the protein was extracted with a lysis buffer and quantified, and then Western blot was performed. A protein sample was electrophoresed on a 4-20% mini-PROTEIN TGX precast protein gel (Bio-Rad, CA, USA) and transferred to a PVDF membrane (Immobilon-P, Merck, Darmstadt, Germany). The primary antibodies used herein were P-Tau AT8 (#MN1020), P-Tau S396 (#44-752G), and P-Tau S356 (#44-751G) from ThermoFisher scientific (MA, USA), and GAPDH (SC-47724) from SANTA CRUZ Biotechnology (TX, USA). The secondary antibody used herein was rabbit/mouse IgG from GeneTex (CA, USA). The image obtained through ImageQuant LAS 4000 (GE healthcare, IL, USA) and the result of quantification using an Image J program are shown in FIG. 1.

For another test, the target named is T2, pathological (P301S) tau (Homo sapiens, UniProt P10636, P618S).
T2 construct: made in house; host or cells: Star pLysS cells (E. coli), pRSET-B vector, IPTG induction
T2 sequence (P10636 1-441 isoform P10636-8 P301S): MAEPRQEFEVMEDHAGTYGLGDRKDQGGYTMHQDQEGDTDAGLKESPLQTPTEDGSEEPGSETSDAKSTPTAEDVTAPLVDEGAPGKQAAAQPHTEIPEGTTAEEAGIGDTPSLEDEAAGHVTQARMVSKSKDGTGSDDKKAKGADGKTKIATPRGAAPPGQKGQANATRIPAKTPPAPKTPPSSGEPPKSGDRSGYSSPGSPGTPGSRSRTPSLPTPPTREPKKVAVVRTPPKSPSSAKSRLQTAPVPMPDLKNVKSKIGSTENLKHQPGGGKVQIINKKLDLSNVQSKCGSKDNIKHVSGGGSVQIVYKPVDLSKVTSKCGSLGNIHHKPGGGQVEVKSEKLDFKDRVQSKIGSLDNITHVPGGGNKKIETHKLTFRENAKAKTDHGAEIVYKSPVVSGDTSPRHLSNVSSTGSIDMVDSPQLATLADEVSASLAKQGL
As to the kind of experiment: SPR binding affinity of tau PROTAC to P301S tau. The following applies: CM5 sensor chip, concentration-dependent kinetic assay, read-out: binding affinity (Ka) to the P301S tau. On the procedure: (§3) The following experiment was performed to verify that the compound according to the present invention selectively degrades only phosphorylated tau. In order to biophysically analyze selective binding of the tau PROTAC to P301S, which is known as a representative mutant of pathological tau, non-pathological (WT) tau and pathological (P301S) tau were cloned into pRSET-B vectors to obtain plasmids. Star pLysS cells were used to overexpress proteins and 1 mM IPTG was added to the medium at an OD600 of 0.4 to 0.6. The intracellular proteins were extracted from the cells lysed in a lysis buffer through heat shock (95° C.), and WT tau and P301S tau were obtained at a high purity (>95%) using cation exchange chromatography and size exclusion chromatography.
(§4) Whether or not the obtained proteins bound to the tau PROTAC was determined through an SPR experiment. A CM5 sensor chip including dextran attached thereto was used, tau PROTAC was allowed to flow and the binding affinity between the protein and the compound was determined based on a response unit (RU). The binding affinity (Ka) to the protein was measured using concentration-dependent kinetic assay. The results of measurement of binding affinity between the tau PROTAC compound and non-pathological WT Tau or pathological P301S tau are shown in FIG. 2. […]

A further test deals with T3, P-Tau (S396) (Homo sapiens, UniProt P10636, P618L).
T3 construct: host or cells: HEK293T
T3 sequence (P10636 1-383 isoform P10636-6 P243L): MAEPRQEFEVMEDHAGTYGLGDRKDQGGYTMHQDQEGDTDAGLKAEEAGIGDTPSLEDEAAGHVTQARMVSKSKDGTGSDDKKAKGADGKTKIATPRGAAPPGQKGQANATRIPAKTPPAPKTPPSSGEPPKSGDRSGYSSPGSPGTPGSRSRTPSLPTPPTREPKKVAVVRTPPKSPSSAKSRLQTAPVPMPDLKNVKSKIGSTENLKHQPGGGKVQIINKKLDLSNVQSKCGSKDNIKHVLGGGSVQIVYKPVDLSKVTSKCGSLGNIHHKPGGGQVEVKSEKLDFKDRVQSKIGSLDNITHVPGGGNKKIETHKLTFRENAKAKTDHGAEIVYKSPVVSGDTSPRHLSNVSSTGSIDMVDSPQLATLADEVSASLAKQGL
As to the kind of experiment: Phosphorylated tau degradation in HEK293T P301L mutant cell line, Western blot, P-Tau S396. The class given is cell-based. To be noted: 1 μM, 72 hours, HEK293T P301L cells, Western blot quantified with Image J.
Source text: as §1, §2

The target of test [1] is T4, non-pathological (WT) tau (Homo sapiens, UniProt P10636).
T4 construct: made in house; host or cells: Star pLysS cells (E. coli), pRSET-B vector, IPTG induction
T4 sequence (P10636 1-441 isoform P10636-8): as the sequence (P10636 1-441 isoform P10636-8 P301S) above, with S301P counted along it
As to the kind of experiment: SPR binding affinity of tau PROTAC to WT tau. The following applies: CM5 sensor chip, concentration-dependent kinetic assay, nonpathological WT tau, read-out: binding affinity (Ka) to tau. Here is the method: as §3, §4

The next test addresses T5, P-Tau AT8 (S202, T205) (Homo sapiens, UniProt P10636, P618L).
T5 construct: host or cells: HEK293T
As to the kind of experiment: Phosphorylated tau degradation in HEK293T P301L mutant cell line, Western blot, P-Tau AT8. It counts as cell-based. To be noted: 72 hours, HEK293T P301L cells, Western blot quantified with Image J.
Source text: as §1, §2

T5 sequence (P10636 1-383 isoform P10636-6 P243L): as the sequence (P10636 1-383 isoform P10636-6 P243L) above
T1 sequence (P10636 1-383 isoform P10636-6 P243L): as above

`CCN1C(=O)/C(=C/c2cn(Cc3cn(CCOCCOCC(=O)Nc4cccc5c4C(=O)N(C4CCC(=O)NC4=O)C5=O)nn3)c3ccccc23)NC1=S` (stereo not shown) [TAU-2 PROTAC, (Z)—N-(2-(2,6-dioxopiperidin-3-yl)-1,3-dioxoisoindolin-4-yl)-2-(2-(2-(4-((3-((1-ethyl-5-oxo-2-thioxoimidazolidin-4-ylidene)methyl)-1H-indol-1-yl)methyl)-1H-1,2,3-triazol-1-yl)ethoxy)ethoxy)acetamide]: the “phosphorylated tau degradation activity, P-Tau (S356)” value is on record as 62% at P-Tau (S356) (1 μM) and 80% at P-Tau (S356) (10 μM). Also, the Kd at pathological (P301S) tau is 18.7 µM; in test [1], 199 µM. Further, the “degradation activity, P-Tau (S396)” value at P-Tau (S396) is 30%. The “degradation activity compared to the control group, P-Tau AT8 (S202, T205)” value on P-Tau AT8 (S202, T205) (1 μM) was found to be 59%; on P-Tau AT8 (S202, T205) (10 μM) it was 53%.
